Measurements published in PubChem BioAssay AID2060892 (Molecular Pharmacology Branch, DTP, NCI, 2025).

Test system: HOP-62 complex spheroids with HUVEC/MSC, viability
Experiment: Anticancer human tumor HOP-62 cell line growth inhibition [RAS];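 further: spheroids exposed to agents for seven days before readout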;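 on viability, T/C: 100% = DMSO vehicle control viability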
Conditions: for IC50: curve of first compound; for viability, T/C: stronger effect = lower value
Description: RAS pathway inhibitors in Combinations in Complex Spheroids
A high-throughput screen of multi-cell type tumor spheroids was designed to identify active combinations of RAS pathway inhibitors and targeted small molecules. Complex spheroids include a stromal component modeled by human endothelial cells (HUVEC) and fibroblasts modeled by human mesenchymal stem cells (MSCs). The concentration ranges selected for each drug and investigational agent were based upon clinically achievable concentrations if the clinical Cmax of the agent was known.
Compounds. The drugs and investigational agents: abemaciclib (NSC768073), cobimetinib (NSC768068), divarasib (GDC6063, NSC841802), docetaxel (NSC628503), GDC-1971 (RLY-1971, NSC841576), gemcitabine (NSC613327), inavolisib (NSC800729), ipatasertib (NSC767898), KB-0742 (NSC834161), MRTX-1133 (NSC836407), osimertinib (NSC779217), RMC-4630 (NSC839698), RMC-6236 (NSC851965), RMC-6291 (NSC852671), Ro-3306 (NSC812927), sapanisertib (NSC764658), SN-38 (NSC673596), staurosporine (NSC755774), SY5609 (NSC837396), and tovorafenib (DAY101, NSC766906), were obtained from the National Cancer Institute (NCI) Developmental Therapeutics Program Chemical Repository. The FDA-approved anticancer drug set is available from the NCI Developmental Therapeutics Program. […] The stock solutions were prepared in dimethyl sulfoxide (DMSO, Sigma-Aldrich, St. Louis, MO, cat. D2650) at 800-fold the tested concentration and stored at -70 degrees C prior to their use. All drugs and investigational agents were tested over a range starting from a high concentration at or near the clinical Cmax and decreasing in half-log increments. If the clinical Cmax for an agent had not been determined, the highest concentration tested was 10 microM.
Cell Culture. All cells were maintained in an incubator at 37 degrees C and 5% CO2 with 95% humidity. The PDC lines were cultured according to standard operating procedures established by the NCI PDMR. All PDCs were thawed and cultured in Matrigel-coated flasks prepared with a working solution of 1X Ham's F-12 nutrient mix, without supplementation (Invitrogen, Waltham, MA, cat. 11765054), 100 U/mL penicillin-streptomycin (Invitrogen, cat. 15140122), and 2.5% Matrigel (Corning Inc., Corning, NY, cat. 354248) for the first three passages. The 362531-283-R-J2-PDC and 782815-120-R-J1-PDC lines were cultured in 6C/Colon 1B media, which includes advanced DMEM/F-12 (Thermo Fisher Scientific, cat. 12634028), 10 mM HEPES (Thermo Fisher Scientific, cat. 15630080), 1X GlutaMAX supplement (Thermo Fisher Scientific, cat. 35050061), 0.1 mg/mL primocin (InvivoGen, San Diego, CA, cat. ant-pm-2), 10% defined fetal bovine serum, heat inactivated (HyClone Laboratories Inc., Logan, UT, cat. SH30070.03HI), 50% L-WRN conditioned media (ATCC, cat. CRL-3276), 1.25 mM N-Acetyl-L-cysteine (Sigma-Aldrich, cat. A9165), 10 mM nicotinamide (Sigma-Aldrich, cat. N0636), 1X B-27 supplement (Thermo Fisher Scientific, cat. 17504044), 1X N-2 supplement (Thermo Fisher Scientific, cat. 17502048), 50 ng/mL human EGF (Thermo Fisher Scientific, cat. PHG0311), and 10 microM Y-27632 dihydrochloride (Tocris Bioscience, cat. 1254). The K12877-001-R-J1-PDC line was cultured in 6I media, which includes all 6C/Colon 1B media plus 10 ng/mL human FGF-10 (PeproTech, cat. 100-26), 1 ng/mL human FGF-2 (PeproTech, cat. 100-18B), 1 µM prostaglandin E2 (Tocris Bioscience, cat. 2296), […] hydrocortisone (Sigma-Aldrich, cat. H4001), and […] bovine insulin (Sigma-Aldrich, cat. I6634). The K86415-001-R-J1-PDC line was cultured in 6D media, which includes all 6C/Colon 1B media components minus the L-WRN conditioned media. The 485176-168-R4-J1-PDC was cultured in PANC media, which includes all 6C/Colon 1B media plus 100 ng/mL human FGF-10 (PeproTech, cat. 100-26), 500 nM SB-431542 (Selleckchem, cat. S1067), and 10 nM gastrin (Tocris Bioscience, cat. 3006). […]

`C=CC(=O)N1CCN(c2nc(OCC3CCCN3C)nc3c(F)c(-c4nc(N)cc(C)c4C(F)(F)F)c(Cl)cc23)C(C)C1` (centres undefined) + CCn1c(-c2cc(N3CCN(C)CC3)cnc2C(C)OC)c2c3cc(ccc31)-c1csc(n1)CC(NC(=O)C1CC1C)C(=O)N1CCCC(N1)C(=O)OCC(C)(C)C2 was tested, and the IC50 (second compound 0.000949 µM) was greater than 1000 nM, the IC50 (second compound 0.003 µM) was greater than 1000 nM and the IC50 (second compound 0.00949 µM) was greater than 1000 nM. For the same compound, the IC50 (second compound 0.03 µM) was less than 3.16 nM, the IC50 (second compound 0.0949 µM) was less than 3.16 nM and the IC50 (second compound 0.3 µM) was less than 3.16 nM. For the same compound, the viability, T/C (second compound 0.000949 µM, first compound 0.00316 µM) was 92.6%, the viability, T/C (second compound 0.000949 µM, first compound 0.01 µM) was 85.2% and the viability, T/C (second compound 0.000949 µM, first compound 0.0316 µM) was 66.2%. For the same compound, the viability, T/C (second compound 0.000949 µM, first compound 0.1 µM) was 88.2%, the viability, T/C (second compound 0.000949 µM, first compound 0.316 µM) was 84% and the viability, T/C (second compound 0.000949 µM, first compound 1 µM) was 66.1%. The viability, T/C (second compound 0.003 µM, first compound 0.00316 µM) was 75.6%, the viability, T/C (second compound 0.003 µM, first compound 0.01 µM) was 75.9% and the viability, T/C (second compound 0.003 µM, first compound 0.0316 µM) was 69.2%. It also gave a viability, T/C (second compound 0.003 µM, first compound 0.1 µM) of 74.2%, a viability, T/C (second compound 0.003 µM, first compound 0.316 µM) of 78.5% and a viability, T/C (second compound 0.003 µM, first compound 1 µM) of 54.5%. For the same compound, the viability, T/C (second compound 0.00949 µM, first compound 0.00316 µM) was 70.7%, the viability, T/C (second compound 0.00949 µM, first compound 0.01 µM) was 52.2% and the viability, T/C (second compound 0.00949 µM, first compound 0.0316 µM) was 52.9%. The viability, T/C (second compound 0.00949 µM, first compound 0.1 µM) was 59.8%, the viability, T/C (second compound 0.00949 µM, first compound 0.316 µM) was 49.7% and the viability, T/C (second compound 0.00949 µM, first compound 1 µM) was 46.1%. It also gave a viability, T/C (second compound 0.03 µM, first compound 0.00316 µM) of 46.8%, a viability, T/C (second compound 0.03 µM, first compound 0.01 µM) of 43.2% and a viability, T/C (second compound 0.03 µM, first compound 0.0316 µM) of 43.5%. The viability, T/C (second compound 0.03 µM, first compound 0.1 µM) was 32.2%, the viability, T/C (second compound 0.03 µM, first compound 0.316 µM) was 31.3% and the viability, T/C (second compound 0.03 µM, first compound 1 µM) was 38.5%. It also gave a viability, T/C (second compound 0.0949 µM, first compound 0.00316 µM) of 35.6%, a viability, T/C (second compound 0.0949 µM, first compound 0.01 µM) of 37.1% and a viability, T/C (second compound 0.0949 µM, first compound 0.0316 µM) of 34%. The viability, T/C (second compound 0.0949 µM, first compound 0.1 µM) was 36.7%, the viability, T/C (second compound 0.0949 µM, first compound 0.316 µM) was 29.2% and the viability, T/C (second compound 0.0949 µM, first compound 1 µM) was 27.2%. For the same compound, the viability, T/C (second compound 0.3 µM, first compound 0.00316 µM) was 39.4%, the viability, T/C (second compound 0.3 µM, first compound 0.01 µM) was 52.7% and the viability, T/C (second compound 0.3 µM, first compound 0.0316 µM) was 37.7%. It also gave a viability, T/C (second compound 0.3 µM, first compound 0.1 µM) of 28.8%, a viability, T/C (second compound 0.3 µM, first compound 0.316 µM) of 31.7% and a viability, T/C (second compound 0.3 µM, first compound 1 µM) of 31.6%.

`CCc1c2c(nc3ccc(O)cc13)-c1cc3c(c(=O)n1C2)COC(=O)[C@]3(O)CC` + CCn1c(-c2cc(N3CCN(C)CC3)cnc2C(C)OC)c2c3cc(ccc31)-c1csc(n1)CC(NC(=O)C1CC1C)C(=O)N1CCCC(N1)C(=O)OCC(C)(C)C2 showed an IC50 (second compound 0.000949 µM) of 1.77 nM, an IC50 (second compound 0.003 µM) of 1.54 nM and an IC50 (second compound 0.00949 µM) of 1.14 nM. It also gave an IC50 (second compound 0.03 µM) of less than 0.949 nM, an IC50 (second compound 0.0949 µM) of less than 0.949 nM and an IC50 (second compound 0.3 µM) of less than 0.949 nM. The viability, T/C (second compound 0.000949 µM, first compound 0.000949 µM) was 83.8%, the viability, T/C (second compound 0.000949 µM, first compound 0.003 µM) was 21.2% and the viability, T/C (second compound 0.000949 µM, first compound 0.00949 µM) was 9.03%. The viability, T/C (second compound 0.000949 µM, first compound 0.03 µM) was 7.89%, the viability, T/C (second compound 0.000949 µM, first compound 0.0949 µM) was 5.5% and the viability, T/C (second compound 0.000949 µM, first compound 0.3 µM) was 1.91%. For the same compound, the viability, T/C (second compound 0.003 µM, first compound 0.000949 µM) was 72.3%, the viability, T/C (second compound 0.003 µM, first compound 0.003 µM) was 18.9% and the viability, T/C (second compound 0.003 µM, first compound 0.00949 µM) was 13.3%. The viability, T/C (second compound 0.003 µM, first compound 0.03 µM) was 11.4%, the viability, T/C (second compound 0.003 µM, first compound 0.0949 µM) was 7.41% and the viability, T/C (second compound 0.003 µM, first compound 0.3 µM) was 4.35%. The viability, T/C (second compound 0.00949 µM, first compound 0.000949 µM) was 55.1%, the viability, T/C (second compound 0.00949 µM, first compound 0.003 µM) was 25.2% and the viability, T/C (second compound 0.00949 µM, first compound 0.00949 µM) was 17.4%. The viability, T/C (second compound 0.00949 µM, first compound 0.03 µM) was 13.7%, the viability, T/C (second compound 0.00949 µM, first compound 0.0949 µM) was 11.1% and the viability, T/C (second compound 0.00949 µM, first compound 0.3 µM) was 9.59%. For the same compound, the viability, T/C (second compound 0.03 µM, first compound 0.000949 µM) was 45.6%, the viability, T/C (second compound 0.03 µM, first compound 0.003 µM) was 32% and the viability, T/C (second compound 0.03 µM, first compound 0.00949 µM) was 21.1%. For the same compound, the viability, T/C (second compound 0.03 µM, first compound 0.03 µM) was 15.6%, the viability, T/C (second compound 0.03 µM, first compound 0.0949 µM) was 13.1% and the viability, T/C (second compound 0.03 µM, first compound 0.3 µM) was 13.2%. The viability, T/C (second compound 0.0949 µM, first compound 0.000949 µM) was 34.5%, the viability, T/C (second compound 0.0949 µM, first compound 0.003 µM) was 32.5% and the viability, T/C (second compound 0.0949 µM, first compound 0.00949 µM) was 19.7%. For the same compound, the viability, T/C (second compound 0.0949 µM, first compound 0.03 µM) was 14.7%, the viability, T/C (second compound 0.0949 µM, first compound 0.0949 µM) was 12.9% and the viability, T/C (second compound 0.0949 µM, first compound 0.3 µM) was 13.6%. It also gave a viability, T/C (second compound 0.3 µM, first compound 0.000949 µM) of 37.8%, a viability, T/C (second compound 0.3 µM, first compound 0.003 µM) of 25.2% and a viability, T/C (second compound 0.3 µM, first compound 0.00949 µM) of 18.5%. The viability, T/C (second compound 0.3 µM, first compound 0.03 µM) was 15.8%, the viability, T/C (second compound 0.3 µM, first compound 0.0949 µM) was 21.9% and the viability, T/C (second compound 0.3 µM, first compound 0.3 µM) was 15.8%.
